# Experimental data: patent publication CN110478361A, “一种安全性高的灯盏花乙素药物组合物及其制备方法” (KUNMING LONGJIN PHARMACEUTICAL CO Ltd, priority 2018, dated 2019)
# How the values were obtained:
# [1] = system: rat dementia caused by β-amyloid (β-淀粉样蛋白致大鼠痴呆); conditions: male Wistar rats; cited from earlier work
# [2] = system: reflux oesophagitis and gastritis (反流性食道炎以及抗胃炎); conditions: cited from earlier work
# [3] = system: rat dementia caused by kainic acid (海人藻酸所致大鼠痴呆); conditions: male Wistar rats; cited from earlier work
# Beagle dogs (Beagle犬) [4] = experiment: Single-dose intravenous toxicity in Beagle dogs; format: in vivo, dog; conditions: worked out from dog single i.v. MTD
# [5] = Single-dose intravenous toxicity in Beagle dogs; format: in vivo, dog; conditions: in vivo, iv; Beagle dog, single i.v., injectable breviscapine made from Example 1; 200, 400 mg/kg; 14 days observation; read-out: maximum tolerated dose (MTD)
# SD rats (SD大鼠) [6] = experiment: Repeated-dose intravenous toxicity in SD rats, four weeks with four-week recovery; format: in vivo, rat; conditions: worked out from rat 28-day i.v. NOAEL
# [7] = as above; format: in vivo, rat; conditions: in vivo, iv; SD rat, i.v. once daily, 28 days, recovery 29 days; 200, 400, 600 mg/kg; injectable breviscapine made from Example 1; read-out: no observed adverse effect level (NOAEL)
# Beagle dogs (Beagle犬) [8] = experiment: Repeated-dose intravenous toxicity in Beagle dogs, four weeks with four-week recovery; format: in vivo, dog; conditions: worked out from dog 28-day i.v. NOAEL
# [9] = as above; format: in vivo, dog; conditions: in vivo, iv; Beagle dog, i.v. once daily, 28 days, recovery 28 days; 25, 50, 100 mg/kg; injectable breviscapine made from Example 1; read-out: no observed adverse effect level (NOAEL)
# SD rats (SD大鼠) [10] = experiment: Single-dose intravenous toxicity in SD rats; format: in vivo, rat; conditions: worked out from rat single i.v. MTD
# [11] = Single-dose intravenous toxicity in SD rats; format: in vivo, rat; conditions: in vivo, iv; SD rat, single i.v., injectable breviscapine made from Example 1; 500, 750, 1000 mg/kg; 14 days observation; read-out: maximum tolerated dose (MTD)
# [12] = Clarity test (compared with yellow-green No. 6 standard colour solution, Chinese Pharmacopoeia 2015, general chapter 0901, method 1); format: physicochemical; conditions: 0.02 mg per mL in 1% sodium hydrogencarbonate solution, inspected within 5 minutes
# SD rats (SD大鼠) [13] = experiment: Single-dose oral gavage toxicity in SD rats; format: in vivo, rat; conditions: worked out from rat single oral dose
# [14] = Single-dose oral gavage toxicity in SD rats; format: in vivo, rat; conditions: in vivo; SD rat, single oral gavage, 5000 mg/kg; 14 days observation; read-out: maximum administered dose
# [15] = aglycone and active metabolite of scutellarin, compared with scutellarin; cited from earlier work
# [16] = in air; cited from earlier work
# [17] = compared with apigenin and omeprazole
smiles,measurement,setting,value
"O=C(O)[C@H]1O[C@@H](Oc2cc(O)c3c(=O)cc(-c4ccc(O)cc4)oc3c2)[C@H](O)[C@@H](O)[C@@H]1O [5,4’-二羟基黄酮-7-O-β-D-葡萄糖醛酸]",effect on pathological damage of cerebral cortex and hippocampus,[1],可减轻β-淀粉样蛋白所致大鼠脑皮层及海马的病理损害
same,therapeutic effect on dementia,[1],有一定的治疗作用
same,anti-reflux-oesophagitis and anti-gastritis effect,[2]; [17],比芹菜素和奥美拉唑更有效
same,reduction of the extent of gastric lesions,[2]; [17],比芹菜素和奥美拉唑更能有效的减小胃损伤范围
same,MOA content produced by induced reflux oesophagitis,"[2]; mouse, in vivo",减少由诱导反流性食管炎而产生的MOA的含量
same,antioxidant activity,"[2]; mouse, in vivo",有抗氧化活性
same,glutathione (GSH) produced in acute oesophagitis,"[2]; mouse, in vivo",清除急性食管炎产生的谷胱甘肽(GSH)
same,effect on pathological changes of brain tissue,[3],有一定改善作用
O=C(O)[C@H]1O[C@@H](Oc2cc3oc(-c4ccc(O)cc4)cc(=O)c3c(O)c2O)[C@H](O)[C@@H](O)[C@@H]1O [实施例1],equivalent human daily intake of the MTD,Beagle dogs (Beagle犬) [4],6666 mg
same,MTD at 336 h,[5],200 mg/kg
same,equivalent human daily intake of the NOAEL,SD rats (SD大鼠) [6],2000 mg
same,NOAEL at 672 h,[7],200 mg/kg
same,equivalent human daily intake of the NOAEL,Beagle dogs (Beagle犬) [8],833.3 mg
same,NOAEL at 672 h,[9],25 mg/kg
same,equivalent human daily intake of the MTD,SD rats (SD大鼠) [10],7500 mg
same,MTD at 336 h,[11],750 mg/kg
same,clarity test conclusion,[12],符合规定
O=C(O)[C@H]1O[C@@H](Oc2cc3oc(-c4ccc(O)cc4)cc(=O)c3c(O)c2O)[C@H](O)[C@@H](O)[C@@H]1O [实施例2],equivalent human daily intake of the maximum administered dose,SD rats (SD大鼠) [13],50 g
same,MTD at 336 h,[14],5000 mg/kg
O=c1cc(-c2ccc(O)cc2)oc2cc(O)c(O)c(O)c12 [野黄芩素],related biological activity,[15],更强相关生物活性
same,stability,[16],在空气中易氧化变为醌类衍生物
